This is an account of results in US11401255B2, “Small molecule activators of Parkin enzyme function” (Mayo Foundation for Medical Education and Research, priority 2016, dated 2022).

The target of the test is Parkin (Homo sapiens (Human), UniProt O60260). In words: In vitro ubiquitylation assay with isolated mitochondria. Type of test: biochemical. The note with it: mitochondria from CCCP-treated HeLa cells lacking Parkin, vs DMSO. The protocol:
FIGS. 15A-15H show Parkin activation in primary fibroblasts, neuronal cells and in vitro. Positive control (PC) cells were treated with DMSO and 10 μM of CCCP. Negative control (NC) cells were treated with 3.5 μM CCCP, some cells were left untreated (−). […] Vinculin was used as loading control. […] FIG. 15C: Human fibroblasts were directly converted to neurons and treated as in FIG. 15B. […] Beta III tubulin confirmed successful conversion of fibroblasts to iNeurons. FIG. 15D: Rat PC12 cells were treated as in FIG. 15A. Western blots show enhanced ubiquitylation of MFN2 and TOM70, and robust pSer65-Ub induction similar to PC, but not NC cells. FIG. 15E: In vitro E2 discharge assay. Recombinant Parkin was pre-incubated with compound 4 or DMSO as control and was mixed to Ub-loaded UbcH7. […] Control reactions were performed without PINK1 or Parkin. FIG. 15F: In vitro assay with isolated mitochondria from untreated or CCCP-treated HeLa cells lacking Parkin. Mitochondrial preparations were mixed with recombinant Parkin, E1, UbcH7, ATP and either compound 4 or DMSO as a control and incubated for the indicated times. […] Control samples were incubated in reaction mix without Parkin. […]
The in vitro assays with mitochondrial preparations were performed as follows. […] The mitochondrial pellet was resuspended in solution B and the protein concentration determined by BCA. […]

Sequence of Parkin (O60260 whole entry): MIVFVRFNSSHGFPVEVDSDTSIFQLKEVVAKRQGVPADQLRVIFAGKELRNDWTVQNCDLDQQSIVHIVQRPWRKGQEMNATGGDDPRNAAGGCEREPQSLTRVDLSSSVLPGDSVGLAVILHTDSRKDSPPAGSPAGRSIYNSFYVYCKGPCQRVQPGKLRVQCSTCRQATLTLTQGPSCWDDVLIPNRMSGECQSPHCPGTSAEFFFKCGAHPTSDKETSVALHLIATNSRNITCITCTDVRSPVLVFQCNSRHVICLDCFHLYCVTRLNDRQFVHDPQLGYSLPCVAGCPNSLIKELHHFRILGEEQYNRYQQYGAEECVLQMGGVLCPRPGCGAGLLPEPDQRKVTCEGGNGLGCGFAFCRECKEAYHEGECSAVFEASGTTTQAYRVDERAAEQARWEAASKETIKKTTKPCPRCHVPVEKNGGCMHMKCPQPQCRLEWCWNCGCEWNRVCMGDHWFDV

Turning to `O=C(Cn1ccnc1-c1ccccn1)Nc1ccc(-c2ccccc2)cc1` [Compound 4], the MFN1 ubiquitylation result is given as “increased ubiquitylation”.
